Tests used:
[1] = Mixing of the ether alcohol solution into C12-C15-alcohol benzoate, stability of the resulting system; assay type: physicochemical; conditions: for miscibility of the solution with C12-C15-alcohol benzoate: solution in polyethylene glycol monomethyl ether (7 EO)
Procedure: At room temperature (25° C.), a storage time of more than 7 days was determined without resulting in flocculation or phase separation.
(§1) Salicylic acid was dissolved at room temperature in polyethylene glycol monomethyl ether (7 EO). A solution was accessible which comprised more than 10% by weight of salicylic acid in the acid form. The solution could be introduced in any fractions into C12-C15-alcohol benzoate without resulting in precipitation of the salicylic acid.

[2] = Solution in polyethylene glycol monomethyl ether (7 EO); assay type: physicochemical; conditions: dissolved in polyethylene glycol monomethyl ether (7 EO), room temperature, based on the total solution
Text: A solution was accessible which, based on the total solution, comprised 60% by weight of the light protection agent.
The light protection agent 2-hydroxy-4-methoxybenzophenone (benzophenone-3) could be dissolved at room temperature in polyethylene glycol monomethyl ether (7 EO), the fraction of light protection agent in the solution being more than 30% by weight.
2-Hydroxy-4-methoxybenzophenone-5-sulfonic acid could be dissolved in polyethylene glycol monomethyl ether (7 EO), the resulting solution comprising more than 10% by weight of the light protection agent. The per se water-soluble light protection agent could be introduced into an oil phase as polyethylene glycol monomethyl ether (7 EO) solution so that it could be used in this formulation as oil-soluble light protection filter.
as §1

[3] = cited from earlier work

storage time without flocculation or phase separation ([1]; 60% strength solution in C12-C15-alcohol benzoate, room temperature (25° C.))	miscibility of the solution with C12-C15-alcohol benzoate [1]	fraction of the compound in the accessible solution [2]	Compound	fraction of light protection agent in solutions hitherto accessible [3]
more than 7 days	any mixing ratios	60 % by weight	CCCCC(CC)COC(=O)c1ccc(Nc2nc(Nc3ccc(C(=O)OCC(CC)CCCC)cc3)nc(Nc3ccc(C(=O)OCC(CC)CCCC)cc3)n2)cc1 (centres unmarked) [2,4,6-trianilino-p-(carbo-2′-ethylhexyl-1′-oxy)-1,3,5-triazine]	–
–	–	more than 30 % by weight	COc1ccc(C(=O)c2ccccc2)c(O)c1 [2-hydroxy-4-methoxybenzophenone]	at most 20 % by weight
–	any fractions	more than 10 % by weight	O=C(O)c1ccccc1O [Salicylic acid, reference compound]	–

Compound	storage time without flocculation or phase separation ([1]; 60% strength solution in C12-C15-alcohol benzoate, room temperature (25° C.))	miscibility of the solution with C12-C15-alcohol benzoate [1]	fraction of the compound in the accessible solution [2]	fraction of light protection agent in solutions hitherto accessible [3]
COc1cc(O)c(C(=O)c2ccccc2)cc1S(=O)(=O)O [2-Hydroxy-4-methoxybenzophenone-5-sulfonic acid]	–	–	more than 10 % by weight	–

From US20060099157A1, “Ether alcohols used as solvents and emulsifiers and dispersions containing said ether alcohols” (IFAC GmbH & Co. KG, priority 2002, published 2006)
